System: human NPY-Y7 receptors
Assay: Competitive displacement of [125I]PYY on membranes of COSm6 cells transiently expressing human NPY-Y7 receptors
Format: binding
Details: for rank of potency for the Y7 receptor: inhibition of [125I]PYY (50 pM) binding, COSm6 membranes, single experiment, triplicate points
Protocol: The results were obtained through competitive displacement of [^125I]PYY on membranes of COSm6 cells transiently expressing human NPY-Y7 receptors. Membranes were incubated with [^125I]PYY (50 pM) and increasing concentrations of peptide competitors. Data are representative of a single experiment with each point measured in triplicate.
These experiments were conducted using COS-6 or HEX (293) cells transiently expressing recombinant Y7 receptor protein.
pcDNA3.1-hy7 cDNA was transiently transfected into the COSm6 cell line using FUGENE and […] of DNA/106 cells. The COSm6 cells were grown in Dulbecco's modified Eagles medium supplemented with 2 mM glutamine and 10% fetal calf serum, in 5% CO2 at 37° C. Membranes were harvested with COSm6 cells 72hr post-transfection. Adherent cells were washed twice in ice-cold phosphate buffered saline and lysed using a glass homogeniser in ice-cold hypotonic buffer (50 mM Tris-HCl, pH 7.4, 0.1% bacitracin). Membranes were pelleted by high speed centrifugation (30,000×g, 15 min 4° C.), homogeniser again in ice-cold hypotonic buffer and collected again by high speed centrifugation (30,000×g, 15 min, 4° C.). […] Samples were incubated at room temperature for 2hr. Incubations were terminated by centrifugation (4 min) and pellets collected. Radioactivity was measured for 1 min in a g counter.

Substance	rank of potency for the Y7 receptor	affinity of the protein encoded by the hy7 cDNA (radio-ligand binding) (COS-6 or HEX (293) cells transiently expressing recombinant Y7 receptor protein, FIG. 2)
[13-36]NPY: NPY-related peptide competitor, NPY fragment 13-36	PYY>NPY>[2-36]PYY>[3-36]NPY>[13-36]NPY>>(Leu31, Pro34)NPY>PP	–
[3-36]NPY: NPY-related peptide competitor, NPY fragment 3-36	PYY>NPY>[2-36]PYY>[3-36]NPY>[13-36]NPY>>(Leu31, Pro34)NPY>PP	–
(Leu31, Pro34)NPY: NPY-related peptide competitor, NPY analogue with Leu31 and Pro34	PYY>NPY>[2-36]PYY>[3-36]NPY>[13-36]NPY>>(Leu31, Pro34)NPY>PP	–
PYY: peptide YY, 36 amino acids, member of the pancreatic polypeptide family	PYY>NPY>[2-36]PYY>[3-36]NPY>[13-36]NPY>>(Leu31, Pro34)NPY>PP	highest affinity
Neuropeptide Y [NPY]	PYY>NPY>[2-36]PYY>[3-36]NPY>[13-36]NPY>>(Leu31, Pro34)NPY>PP	–
[2-36]PYY: NPY-related peptide competitor, PYY fragment 2-36	PYY>NPY>[2-36]PYY>[3-36]NPY>[13-36]NPY>>(Leu31, Pro34)NPY>PP	–

Reference: patent US6803232B1, “NPY-Y7 receptor gene” (The Garvan Institute of Medical Research, priority 1998, dated 2004)
